Values quoted from earlier work in US20130165526A1, “TOPICAL TREATMENT WITH DAPSONE IN G6PD-DEFICIENT PATIENTS” (ALLERGAN, INC., priority 2007, published 2013).

Test system: P. acnes
Details: Godowski et al., 2000

Nc1ccc(S(=O)(=O)c2ccc(N)cc2)cc1 [Dapsone, bis(4-aminophenyl)sulfone]
Minimum inhibitory concentration: about 1 microgram per milliliter
